In US11999727B2 (Tango Therapeutics, Inc., priority 2020, dated 2024):

How the values were obtained:
[1] = target: T1, PRMT5 (Homo sapiens, UniProt O14744); experiment: PRMT5 biochemical IC50 assay with SAM as cofactor; conditions: PRMT5, SAM as cofactor; read-out: SAM IC50
T1 construct: purchased Viva (custom protein)

[2] = target: T1, PRMT5; experiment: PRMT5 biochemical IC50 assay with no cofactor; conditions: PRMT5, no cofactor; read-out: No Cofactor/rel IC50
Excerpt: Table 1 indicates IC50 values (μM) against PRMT5 for exemplary compounds in the presence of SAM as cofactor, with no cofactor, and with MTA as cofactor, respectively (columns 4-6). […] Ki values can be calculated from the IC50 values as described in the Examples section. As detailed in the Examples section, for the assay performed in the presence of SAM, IC50=Ki×1.5 (Ki=IC50/1.5).

[3] = target: T1, PRMT5; experiment: PRMT5 biochemical IC50 assay with MTA as cofactor; conditions: PRMT5, MTA as cofactor; read-out: MTA IC50
[4] = tested on: HAP1 MTAP-intact cell line; experiment: SDMA in-cell western assay, HAP1 MTAP-intact; format: cell-based; conditions: Homo sapiens, HAP1, SDMA in-cell western, HAP1 MTAP-intact; read-out: MTAP HAP1 intact IC50
How it was run: (§1)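 Isogenic HAP1 pair: the MTAP-intact line expresses endogenous MTAP, and the deleted line is MTAP-null. Symmetric dimethylarginine was detected by in-cell western and IC50 values derived for each line.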

[5] = tested on: HAP1 MTAP-deleted cell line; experiment: SDMA in-cell western assay, HAP1 MTAP-deleted; format: cell-based; conditions: for IC50: Homo sapiens, HAP1, SDMA in-cell western, HAP1 MTAP-deleted; for MTAP intact/deleted ratio: IC50 ratio HAP1 MTAP-intact / HAP1 MTAP-deleted, SDMA in-cell western
How it was run: as §1

[6] = tested on: HAP1 MTAP-deleted cell line; experiment: Viability assay, MTAP-deleted cell line; format: cell-based; conditions: Homo sapiens, read-out: HAP1 MTAP deleted viability
Excerpt: Table 1 additionally indicates IC50 values in a viability assay for the MTAP-deleted cell line (column 10), indicating the effect of treatment with compound on cell survival.

[7] = read-out: HAP 1 MTAP deleted IC50
[8] = HAP1, viability IC50, MTAP-deleted cell line
[9] = read-out: HAP1 MTAP deleted IC50
[10] = HAP1, viability assay, HAP1 MTAP-deleted

T1 sequence (O14744 whole entry): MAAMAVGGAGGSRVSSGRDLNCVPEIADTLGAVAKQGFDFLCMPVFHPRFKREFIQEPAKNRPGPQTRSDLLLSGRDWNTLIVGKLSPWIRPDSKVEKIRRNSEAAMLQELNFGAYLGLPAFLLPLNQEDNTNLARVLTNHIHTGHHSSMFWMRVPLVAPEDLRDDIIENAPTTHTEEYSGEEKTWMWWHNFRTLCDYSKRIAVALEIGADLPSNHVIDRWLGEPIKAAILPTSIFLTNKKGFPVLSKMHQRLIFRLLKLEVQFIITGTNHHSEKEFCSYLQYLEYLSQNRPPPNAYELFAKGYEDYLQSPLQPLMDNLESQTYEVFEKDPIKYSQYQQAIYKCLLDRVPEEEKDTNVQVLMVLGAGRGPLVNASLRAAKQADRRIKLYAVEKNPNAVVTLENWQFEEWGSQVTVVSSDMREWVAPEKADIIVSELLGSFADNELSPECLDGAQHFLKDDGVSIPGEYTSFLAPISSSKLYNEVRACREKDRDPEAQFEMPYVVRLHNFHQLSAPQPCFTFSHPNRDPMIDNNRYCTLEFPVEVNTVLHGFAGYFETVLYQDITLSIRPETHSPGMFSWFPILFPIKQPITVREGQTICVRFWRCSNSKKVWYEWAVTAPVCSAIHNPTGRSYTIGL
T1 sequence (Q9BQA1 whole entry partner): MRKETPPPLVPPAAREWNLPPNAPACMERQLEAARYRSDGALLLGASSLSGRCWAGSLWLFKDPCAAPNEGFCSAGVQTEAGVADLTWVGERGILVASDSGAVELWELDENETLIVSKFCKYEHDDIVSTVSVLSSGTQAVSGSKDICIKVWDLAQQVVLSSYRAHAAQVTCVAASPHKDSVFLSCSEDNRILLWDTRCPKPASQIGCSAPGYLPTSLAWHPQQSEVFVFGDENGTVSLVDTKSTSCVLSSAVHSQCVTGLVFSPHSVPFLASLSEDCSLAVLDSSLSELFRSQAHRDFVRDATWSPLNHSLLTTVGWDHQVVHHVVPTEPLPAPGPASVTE

| Structure (SMILES) | IC50 [1] [nM] | IC50 [2] [nM] | IC50 [3] [nM] | IC50 [4] [nM] | IC50 [5, 7] [nM] | MTAP intact/deleted ratio [5] | IC50 [6, 8] [nM] | IC50 [5, 9] [nM] | IC50 [6, 10] [nM] |
| --- | --- | --- | --- | --- | --- | --- | --- | --- | --- |
| C[C@@H]1CC[C@@H](c2cccc(S(N)(=O)=O)c2)N(C(=O)C(=O)Nc2cncc(C(N)=O)c2)C1 (racemic) [Compound 661, 5-(2-(5-methyl-2-(3-sulfamoylphenyl)piperidin-1-yl)-2-oxoacetamido)nicotinamide] | 50 to 500 | 50 to 500 | < 50 | > 1000 | > 1000 | B (an IC50 ratio greater than or equal to 3 fold but lower than 10 fold) | > 10000 |  |  |
| Cc1cc(NC(=O)C(=O)N2C[C@H](C)CC[C@H]2c2ccc(S(N)(=O)=O)cc2)cnc1N (racemic) [Compound 662, N-(6-amino-5-methyl-3-pyridyl)-2-[(2S,5R)-5-methyl-2-(4-sulfamoylphenyl)-1-piperidyl]-2-oxo-acetamide] | 50 to 500 | 50 to 500 | 50 to 500 | > 1000 | 100 to 1000 | A (an IC50 ratio greater than or equal to 10 fold) | > 10000 |  |  |
| C[C@@H]1CC[C@@H](c2ccccc2C#N)N(C(=O)C(=O)Nc2cncc(C(N)=O)c2)C1 (racemic) [Compound 664, 5-[[2-[(2R,5S)-2-(2-Cyanophenyl)-5-methyl-1-piperidyl]-2-oxo-acetyl]amino]pyridine-3-carboxamide] | > 500 | > 500 | 50 to 500 | > 1000 | > 1000 | B (an IC50 ratio greater than or equal to 3 fold but lower than 10 fold) | > 10000 |  |  |
| CNS(=O)(=O)c1cccc([C@@H]2CC[C@@H](C)CN2C(=O)C(=O)Nc2cncc(C(N)=O)c2)c1 (racemic) [Compound 666, 5-[[2-[(2S,5R)-5-methyl-2-[3-(methylsulfamoyl)phenyl]-1-piperidyl]-2-oxo-acetyl]amino]pyridine-3-carboxamide] | 50 to 500 | 50 to 500 | < 50 | > 1000 | > 1000 |  | > 10000 |  |  |
| Cc1cc(NC(=O)C(=O)N2C[C@H](C)CC[C@H]2c2cccc(S(C)(=O)=O)c2)cnc1N (racemic) [Compound 667, N-(6-amino-5-methyl-3-pyridyl)-2-[(2R,5S)-5-methyl-2-(3-methylsulfonylphenyl)-1-piperidyl]-2-oxo-acetamide] | 50 to 500 | 50 to 500 | 50 to 500 | > 1000 | 100 to 1000 | A (an IC50 ratio greater than or equal to 10 fold) | 1000 to 10000 |  |  |
| CNS(=O)(=O)c1ccc([C@@H]2CC[C@@H](C)CN2C(=O)C(=O)Nc2cnc(N)c(C)c2)cc1 (racemic) [Compound 668, N-(6-amino-5-methyl-3-pyridyl)-2-[(2S,5R)-5-methyl-2-[4-(methylsulfamoyl)phenyl]-1-piperidyl]-2-oxo-acetamide] | 50 to 500 | 50 to 500 | < 50 | 100 to 1000 | 100 to 1000 | B (an IC50 ratio greater than or equal to 3 fold but lower than 10 fold) | 1000 to 10000 |  |  |
| NC(=O)c1cncc(NC(=O)C(=O)N2C[C@H](c3cc[nH]n3)CC[C@H]2c2ccccc2)c1 (racemic) [Compound 669, rac-5-(2-oxo-2-((2R,5S)-2-phenyl-5-(1H-pyrazol-5-yl)piperidin-1-yl)acetamido)nicotinamide] | > 500 | > 500 | 50 to 500 | > 1000 | > 1000 | C (an IC50 ratio of less than 3 fold) | > 10000 |  |  |
| C[C@@H]1CC[C@@H](c2ccc3[nH]c(=O)ccc3c2)N(C(=O)C(=O)Nc2cncc(C(N)=O)c2)C1 (racemic) [Compound 670, rac-5-(2-((2R,5S)-5-Methyl-2-(2-oxo-1,2-dihydroquinolin-6-yl)piperidin-1-yl)-2-oxoacetamido)nicotinamide] | 50 to 500 | 50 to 500 | < 50 | > 1000 | 100 to 1000 | A (an IC50 ratio greater than or equal to 10 fold) | 1000 to 10000 |  |  |
| Cc1cc(NC(=O)C(=O)N2C[C@H](C)CC[C@H]2c2ccc3[nH]c(=O)ccc3c2)cnc1N (racemic) [Compound 671, rac-N-(6-Amino-5-methyl-3-pyridyl)-2-[5-methyl-2-(2-oxo-1H-quinolin-6-yl)-1-piperidyl]-2-oxo-acetamide] | 50 to 500 | 50 to 500 | < 50 | 100 to 1000 | < 100 | B (an IC50 ratio greater than or equal to 3 fold but lower than 10 fold) | < 1000 |  |  |
| Cc1cc(NC(=O)C(=O)N2C[C@H](C)CC[C@H]2c2ccc(C(C)(C)O)cc2)cnc1N (racemic) [Compound 672, N-(6-amino-5-methyl-3-pyridyl)-2-[(2R,5S)-2-[4-(1-hydroxy-1-methyl-ethyl)phenyl]-5-methyl-1-piperidyl]-2-oxo-acetamide] | 50 to 500 | 50 to 500 | 50 to 500 | > 1000 | 100 to 1000 | B (an IC50 ratio greater than or equal to 3 fold but lower than 10 fold) | 1000 to 10000 |  |  |
| Cc1cc(NC(=O)C(=O)N2C[C@H](C)CC[C@H]2c2cnc3scnc3c2)cnc1N (racemic) [Compound 685, N-(6-amino-5-methyl-3-pyridyl)-2-[(2S,5R)-5-methyl-2-thiazolo[5,4-b]pyridin-6-yl-1-piperidyl]-2-oxo-acetamide] | > 500 | 50 to 500 | 50 to 500 | > 1000 | 100 to 1000 | A (an IC50 ratio greater than or equal to 10 fold) | > 10000 |  |  |
| Cc1cc(NC(=O)C(=O)N2C[C@H](C)CC[C@H]2c2cccc(S(N)(=O)=O)c2)cnc1N (racemic) [Compound 688, N-(6-amino-5-methyl-3-pyridyl)-2-[(2S,5R)-5-methyl-2-(3-sulfamoylphenyl)-1-piperidyl]-2-oxo-acetamide] | 50 to 500 | 50 to 500 | < 50 | > 1000 | 100 to 1000 | A (an IC50 ratio greater than or equal to 10 fold) | 1000 to 10000 |  |  |
| Cc1cc(NC(=O)C(=O)N2C[C@H](C)CC[C@H]2c2cccc3[nH]ncc23)cnc1N (racemic) [Compound 690, rac-N-(6-amino-5-methyl-3-pyridyl)-2-[(2S,5R)-2-(1H-indazol-4-yl)-5-methyl-1-piperidyl]-2-oxo-acetamide] | 50 to 500 | 50 to 500 | < 50 | > 1000 | 100 to 1000 | A (an IC50 ratio greater than or equal to 10 fold) | 1000 to 10000 |  |  |
| CNS(=O)(=O)c1cccc([C@@H]2CC[C@@H](C)CN2C(=O)C(=O)Nc2cnc(N)c(C)c2)c1 (racemic) [Compound 691, N-(6-amino-5-methyl-3-pyridyl)-2-[(2S,5R)-5-methyl-2-[3-(methylsulfamoyl)phenyl]-1-piperidyl]-2-oxo-acetamide] | 50 to 500 | 50 to 500 | < 50 | > 1000 | 100 to 1000 | A (an IC50 ratio greater than or equal to 10 fold) | 1000 to 10000 |  |  |
| Cc1cc(NC(=O)C(=O)N2C[C@H](C)CC[C@H]2C2CC3(CCC3)C2)cnc1N (racemic) [Compound 692, N-(6-amino-5-methylpyridin-3-yl)-2-(5-methyl-2-(spiro[3.3]heptan-2-yl)piperidin-1-yl)-2-oxoacetamide] | > 500 | > 500 | 50 to 500 | > 1000 | > 1000 | C (an IC50 ratio of less than 3 fold) | > 10000 |  |  |
| CCc1cc(NC(=O)C(=O)N2C[C@@H](C)CC[C@@H]2c2ccc(F)cc2)cnc1N (racemic) [Compound 710, N-(6-amino-5-ethylpyridin-3-yl)-2-(2-(4-fluorophenyl)-5-methylpiperidin-1-yl)-2-oxoacetamide] | 50 to 500 | < 50 | < 50 | > 1000 |  | A (an IC50 ratio greater than or equal to 10 fold) |  | < 100 | < 1000 |
| [H][C@@]1([C@]2([H])C[C@@]3(C[C@H](O)C3)C2)CC[C@@H](C)CN1C(=O)C(=O)Nc1cnc(N)c(C)c1 (mixture of isomers) [Compound 711] | > 500 | > 500 | 50 to 500 | > 1000 |  | B (an IC50 ratio greater than or equal to 3 fold but lower than 10 fold) |  | > 1000 | > 10000 |
